Laboratory results from US20260231913A1, “CANCER MODEL ANIMAL AND METHOD FOR PRODUCING SAME” (ORBIO Corporation, priority 2023, published 2026).
Entries after “also recorded” stand apart in the source; their conditions may differ.

System: insulinoma cells MIN 6 cultured with L-glucose
Experiment: Screening of substances that have anticancer effect in mice with intraperitoneally transplanted, L-glucose-cultured insulinoma cells MIN6
Type: in vivo, mouse
Procedure: Not only human cancer cells A549 but also mouse insulinoma cells MIN6 can be successfully cultured with the L-glucose medium. Mouse insulinoma cells MIN6 were cultured with the D-glucose medium. At a stage where the cells proliferated sufficiently, the medium was changed to the L-glucose medium. Subsequently, the medium change was performed frequently over 2 to 3 days. After almost all dead cells were confirmed to be removed, half the amount of the medium was changed every other day. The MIN6 cells were passaged once or twice using the L-glucose medium. After the culture for 8 to 11 days, the MIN 6 cells were trypsinized to form a cell suspension, which was transplanted at 5×10^6 cells (100 μL)/mouse subcutaneously into the right thigh of mice or at 1.0×10^5 cells (20 μL)/mouse into the abdominal cavity of mice without using Matrigel. As a control, MIN6 cells cultured with the normal D-glucose medium were also transplanted into mice. Because of rapid growth in the D-glucose medium, MIN6 cells were cultured with the D-glucose medium for 6 to 7 days and then transplanted at the same density as that of L-glucose-cultured cells subcutaneously into the right thigh of mice.
A method of screening substances that have anticancer effect was examined using, as a test substance, 2-deoxy-2-(2-oxo-2H-chromen-7-yl) amino-L-glucose (hereinafter referred to as “CLG”) (Japanese Patent No. 6566348), which is a molecule having a 7-OH-cuoumarin moiety bonded to L-glucose via a nitrogen atom.
On day 0, insulinoma cells MIN 6 cultured with L-glucose were intraperitoneally transplanted into 32 mice (four groups each including 8 mice). On day 1, the following groups were prepared: • 8 mice that were intraperitoneally administered every day until day 4 (over 4 minimum days) with a saline solution of CLG at a concentration of 53 mg/kg expected to be safe (CLG administration group); • 8 mice that were intraperitoneally administered only with a CLG-free saline every day until day 7 (over 7 days) (saline administration group); and • 8 mice that were intraperitoneally administered every day until day 7 (over 7 days) with 5-FU (which is used as a standard treatment for pancreatic cancer in Japan and the Europe and also used for treatment of neuroendocrine tumors such as insulinoma) at a high concentration of 25 mg/kg acceptable for nude mice (5-FU administration group).
All mice were euthanized at month 5 and subjected to pathological autopsy.

Row | Molecule | share of mice with normal blood sugar levels and no tumor (8 mice, 53 mg/kg intraperitoneally, day 1 to day 4, month 5) | overall anticancer effect in vivo (administered only for 4 days) | mice that maintained normal blood sugar levels until the final euthanasia, with no tumor on dissection (of the 8 mice, 53 mg/kg intraperitoneally every day, day 1 to day 4, euthanasia at month 5) | mice with a malignant tumor classifiable as neuroendocrine carcinoma (NEC) in the abdominal cavity (of the 8 mice, pathological examination of whole-body sections) | onset of reduction in blood sugar level compared with the saline administration group (remaining 4 of the 8 mice) | necrosis of the intraperitoneal tumor (the one mouse with a malignant tumor) | pathological finding in individual mice (25 mg/kg intraperitoneally every day, day 1 to day 7, 8 mice) | mice likely to have worsened conditions, dissected on day 10 and each found to have a tumor (25 mg/kg intraperitoneally every day, day 1 to day 7, of 8 mice, day 10)
1 | 2-deoxy-2-(2-oxo-2H-chromen-7-yl) amino-L-glucose [CLG] | 50% | significant effect in vivo | 4 mice | one | one week later | at least 90% |  | 
2 | O=c1[nH]cc(F)c(=O)[nH]1 [5-FU, reference compound] |  |  |  |  |  |  | large, highly-atypical, significant liver metastasis with high malignancy; also recorded: invasive cancer in the smooth muscle around the transverse colon | 3 mice
